Data published in PubChem BioAssay AID1919006 (Molecular Pharmacology Branch, DTP, NCI, 2023).

Tested on: 885512-296-R-J2-PDC complex spheroid growth, % test/control
Assay: Anticancer human tumor 885512-296-R-J2-PDC patient-derived breast carcinoma cell line growth inhibition [AhR]
Conditions: for IC50: curve of first compound; for viability, T/C: stronger effect = lower value; active = viability on the fitted dose curve at most 10% of control; inactive = the rest
In short: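 Complex tumor spheroids co-cultured with HUVEC and human MSC stroma; AhR antagonists tested in combination with standard-of-care and investigational agents. Top concentration at or near clinical Cmax (else 10 microM), half-log dilutions; growth expressed as percent test/control.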

[1] = second compound 0.1 µM, first compound 0.0316 µM
[2] = second compound 0.1 µM, first compound 0.1 µM
[3] = second compound 0.1 µM, first compound 0.316 µM
[4] = second compound 0.1 µM, first compound 1 µM
[5] = second compound 0.1 µM, first compound 3.16 µM
[6] = second compound 0.1 µM, first compound 10 µM
[7] = second compound 0.316 µM, first compound 0.0316 µM
[8] = second compound 0.316 µM, first compound 0.1 µM
[9] = second compound 0.316 µM, first compound 0.316 µM
[10] = second compound 0.316 µM, first compound 1 µM
[11] = second compound 0.316 µM, first compound 3.16 µM
[12] = second compound 0.316 µM, first compound 10 µM
[13] = second compound 1 µM, first compound 0.0316 µM
[14] = second compound 1 µM, first compound 0.1 µM
[15] = second compound 1 µM, first compound 0.316 µM
[16] = second compound 1 µM, first compound 1 µM
[17] = second compound 1 µM, first compound 3.16 µM
[18] = second compound 1 µM, first compound 10 µM
[19] = second compound 3.16 µM, first compound 0.0316 µM
[20] = second compound 3.16 µM, first compound 0.1 µM
[21] = second compound 3.16 µM, first compound 0.316 µM
[22] = second compound 3.16 µM, first compound 1 µM
[23] = second compound 3.16 µM, first compound 3.16 µM
[24] = second compound 3.16 µM, first compound 10 µM
[25] = second compound 10 µM, first compound 0.0316 µM
[26] = second compound 10 µM, first compound 0.1 µM
[27] = second compound 10 µM, first compound 0.316 µM
[28] = second compound 10 µM, first compound 1 µM
[29] = second compound 10 µM, first compound 3.16 µM
[30] = second compound 10 µM, first compound 10 µM
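Note: spheroids exposed to compounds for seven days.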

CC(C)c1c(-c2ccccc2)nc2c(C#N)c[nH]n2c1=O + Cc1ccccc1N=Nc1ccc(NC(=O)c2ccnn2C)c(C)c1
< 31.6 nM: IC50 (second compound 10 µM)
inactive: viability, T/C [1] 105% | viability, T/C [2] 106% | viability, T/C [3] 108% | viability, T/C [4] 110% | viability, T/C [5] 111% | viability, T/C [6] 104% | viability, T/C [7] 106% | viability, T/C [8] 104% | viability, T/C [9] 111% | viability, T/C [10] 104% | viability, T/C [11] 102% | viability, T/C [12] 99.4% | viability, T/C [13] 96.2% | viability, T/C [14] 94.4% | viability, T/C [15] 98.4% | viability, T/C [16] 98.6% | viability, T/C [17] 90% | viability, T/C [18] 96.4% | viability, T/C [19] 80.9% | viability, T/C [20] 79.2% | viability, T/C [21] 82.7% | viability, T/C [22] 88% | viability, T/C [23] 81.8% | viability, T/C [24] 67.3% | viability, T/C [25] 45.5% | viability, T/C [26] 50.8% | viability, T/C [27] 55.2% | viability, T/C [28] 45.4% | viability, T/C [29] 47.4% | viability, T/C [30] 42%
> 10000 nM: IC50 (second compound 0.1 µM) | IC50 (second compound 0.316 µM) | IC50 (second compound 1 µM) | IC50 (second compound 3.16 µM)

COc1cc(C2c3cc4c(cc3C(OC3OC5COC(C)OC5C(O)C3O)C3COC(=O)C23)OCO4)cc(OC)c1O (stereo not given) + Cc1cncc(-c2nc(NCCc3c[nH]c4ccccc34)c3ncn(C(C)C)c3n2)c1
601 nM: IC50 (second compound 0.316 µM)
< 31.6 nM: IC50 (second compound 10 µM)
active: viability, T/C [6] 8.99% | viability, T/C [12] 8.12% | viability, T/C [17] 11.2% | viability, T/C [18] 8.42% | viability, T/C [24] 9.12% | viability, T/C [30] 6.83%
551 nM: IC50 (second compound 0.1 µM)
170 nM: IC50 (second compound 3.16 µM)
395 nM: IC50 (second compound 1 µM)
inactive: viability, T/C [1] 104% | viability, T/C [2] 92.2% | viability, T/C [3] 75% | viability, T/C [4] 23.7% | viability, T/C [5] 10.6% | viability, T/C [7] 104% | viability, T/C [8] 101% | viability, T/C [9] 72.8% | viability, T/C [10] 32.1% | viability, T/C [11] 10.5% | viability, T/C [13] 90.2% | viability, T/C [14] 78% | viability, T/C [15] 59.3% | viability, T/C [16] 17.5% | viability, T/C [19] 64.9% | viability, T/C [20] 55.4% | viability, T/C [21] 42% | viability, T/C [22] 15.6% | viability, T/C [23] 10.7% | viability, T/C [25] 18.5% | viability, T/C [26] 17.6% | viability, T/C [27] 14.2% | viability, T/C [28] 14.1% | viability, T/C [29] 10.2%

COc1cccc2c1C(=O)c1c(O)c3c(c(O)c1C2=O)CC(O)(C(=O)CO)CC3OC1CC(N)C(O)C(C)O1 (stereo not given) + Cc1cncc(-c2nc(NCCc3c[nH]c4ccccc34)c3ncn(C(C)C)c3n2)c1
inactive: viability, T/C [1] 23.9% | viability, T/C [2] 15.2% | viability, T/C [7] 24.4% | viability, T/C [8] 19.5% | viability, T/C [13] 19.7% | viability, T/C [14] 17.9% | viability, T/C [19] 17.6% | viability, T/C [25] 11.9%
< 31.6 nM: IC50 (second compound 0.1 µM) | IC50 (second compound 0.316 µM) | IC50 (second compound 1 µM) | IC50 (second compound 3.16 µM) | IC50 (second compound 10 µM)
active: viability, T/C [3] 5.94% | viability, T/C [4] 0.65% | viability, T/C [5] 2.45% | viability, T/C [6] 1.44% | viability, T/C [9] 6.25% | viability, T/C [10] 0.34% | viability, T/C [11] 2.13% | viability, T/C [12] 1.46% | viability, T/C [15] 5.13% | viability, T/C [16] 0.84% | viability, T/C [17] 1.28% | viability, T/C [18] 1.33% | viability, T/C [20] 12.1% | viability, T/C [21] 3.2% | viability, T/C [22] 0.73% | viability, T/C [23] 0.57% | viability, T/C [24] 0.58% | viability, T/C [26] 5.06% | viability, T/C [27] 0.48% | viability, T/C [28] 0.21% | viability, T/C [29] 0.27% | viability, T/C [30] 0.26%

Nc1ncn(C2CC(O)C(CO)O2)c(=O)n1 (stereo not given) + Cc1cncc(-c2nc(NCCc3c[nH]c4ccccc34)c3ncn(C(C)C)c3n2)c1
863 nM: IC50 (second compound 0.1 µM)
< 3.16 nM: IC50 (second compound 10 µM)
871 nM: IC50 (second compound 0.316 µM)
inactive: viability, T/C (second compound 0.1 µM, first compound 0.00316 µM) 93.5% | viability, T/C (second compound 0.1 µM, first compound 0.01 µM) 104% | viability, T/C [1] 101% | viability, T/C [2] 93.6% | viability, T/C [3] 74.4% | viability, T/C [4] 46.4% | viability, T/C (second compound 0.316 µM, first compound 0.00316 µM) 101% | viability, T/C (second compound 0.316 µM, first compound 0.01 µM) 113% | viability, T/C [7] 88.9% | viability, T/C [8] 93.7% | viability, T/C [9] 77.7% | viability, T/C [10] 45.9% | viability, T/C (second compound 1 µM, first compound 0.00316 µM) 91.5% | viability, T/C (second compound 1 µM, first compound 0.01 µM) 86% | viability, T/C [13] 80.7% | viability, T/C [14] 90.4% | viability, T/C [15] 76% | viability, T/C [16] 58.5% | viability, T/C (second compound 3.16 µM, first compound 0.00316 µM) 67.8% | viability, T/C (second compound 3.16 µM, first compound 0.01 µM) 68.5% | viability, T/C [19] 57.2% | viability, T/C [20] 58.3% | viability, T/C [21] 46% | viability, T/C [22] 48.1% | viability, T/C (second compound 10 µM, first compound 0.00316 µM) 18.5% | viability, T/C (second compound 10 µM, first compound 0.01 µM) 20.6% | viability, T/C [25] 20.7% | viability, T/C [26] 11.7% | viability, T/C [27] 14.9% | viability, T/C [28] 12.7%
> 1000 nM: IC50 (second compound 1 µM)
354 nM: IC50 (second compound 3.16 µM)
